Test results: patent publication US10435396B2, “2-substituted indazoles, methods for producing same, pharmaceutical preparations that contain same, and use of same to produce drugs” (Bayer Pharma Aktiengesellschaft, priority 2016, dated 2019)

How the values were obtained:
human IRAK4 = human IRAK4 (Homo sapiens (Human), UniProt Q9NWZ3); assay: IRAK4 kinase assay (IRAK4 TR-FRET assay); assay type: biochemical; conditions: 1 mM ATP
Experimental: The IRAK4-inhibitory activity of the substances according to the invention was measured in the IRAK4 TR-FRET assay (TR-FRET=Time Resolved Fluorescence Resonance Energy Transfer) described hereinafter.
Recombinant fusion protein from N-terminal GST (glutathione S-transferase) and human IRAK4, expressed in baculovirus-infected insect cells (Hi5, BTI-TN-5B1-4, cell line purchased from Invitrogen, catalogue No. B855-02) and purified via affinity chromatography, was used as enzyme. The substrate used for the kinase reaction was the biotinylated peptide biotin-Ahx-[…] (C-terminus in amide form) which can be purchased, for example, from Biosyntan GmbH (Berlin-Buch).
For the assay, 11 different concentrations in the range from 20 μM to 0.073 nM were prepared from a 2 mM solution of the test substance in DMSO. 50 nl of the respective solution were pipetted into a black low-volume 384-well microtitre plate (Greiner Bio-One, Frickenhausen, Germany), 2 μl of a solution of IRAK4 in assay buffer [50 mM HEPES pH 7.5, 5 mM MgCl2, 1.0 mM dithiothreitol, 30 μM activated sodium orthovanadate, 0.1% (w/v) of bovine gamma-globulin (BGG) 0.04% (v/v) nonidet-P40 (Sigma)] were added and the mixture was incubated for 15 min to allow prebinding of the substances to the enzyme prior to the kinase reaction. The kinase reaction was then started by addition of 3 μl of a solution of adenosine triphosphate (ATP, 1.67 mM=final concentration in 5 μl of assay volume: 1 mM) and peptide substrate (0.83 μM=final concentration in 5 μl assay volume: 0.5 μM) in assay buffer, and the resulting mixture was incubated at 22° C. for the reaction time of 45 min. The concentration of the IRAK4 was adjusted to the respective activity of the enzyme and set such that the assay was carried out in the linear range. Typical concentrations were in the order of about 0.2 nM. The reaction was stopped by addition of 5 μl of a solution of TR-FRET detection reagents [0.1 μM streptavidin-XL665 (Cisbio Bioassays; France, catalogue No. 610SAXLG)] and 1.5 nM anti-phosphoserine antibody [Merck Millipore, “STK Antibody”, catalogue No. 35-002] and 0.6 nM LANCE EU-W1024-labelled anti-mouse-IgG antibody (Perkin-Elmer, product No. AD0077; alternatively, it is possible to use a terbium cryptate-labelled anti-mouse-IgG antibody from Cisbio Bioassays) in aqueous EDTA solution (100 mM EDTA, 0.4% [w/v] bovine serum albumin [BSA] in 25 mM HEPES pH 7.5).
The resulting mixture was incubated at 22° C. for 1 h to allow formation of a complex of the biotinylated phosphorylated substrate and the detection reagents. The amount of the phosphorylated substrate was then evaluated by measuring the resonance energy transfer from europium chelate-labelled anti-mouse-IgG antibody to streptavidin-XL665. To this end, the fluorescence emissions at 620 nm and 665 nm were measured after excitation at 350 nm in a TR-FRET measuring instrument, for example a Rubystar (BMG Labtechnologies, Offenburg, Germany) or a Viewlux (Perkin-Elmer). The ratio of the emissions at 665 nm and 622 nm was taken as a measure of the amount of phosphorylated substrate. The data were normalized (enzyme reaction without test substance=0% inhibition; all other assay components but no enzyme=100% inhibition). Typically, the test substances were tested on the same microtitre plates at 11 different concentrations in the range from 20 μM to 0.073 nM (20 μM, 5.7 μM, 1.6 μM, 0.47 μM, 0.13 μM, 38 nM, 11 nM, 3.1 nM, 0.89 nM, 0.25 nM and 0.073 nM). The dilution series were prepared prior to the assay (2 mM to 7.3 nM in 100% DMSO) by serial dilutions. The IC50 values were calculated using a 4-parameter fit.

[1] = tested on: secretion of TNF-α in THP-1 cells; assay: TNF-α secretion in THP-1 cells (LPS-triggered); assay type: cell-based, human; conditions: Homo sapiens, THP-1, 17 h, LPS 0.05 μg/ml, read-out: IC50 with respect to the secretion of TNF-α in THP-1 cells
Experimental: TNF-α Secretion in THP-1 Cells
With the aid of this test, it is possible to test substances for their ability to inhibit secretion of TNF-α (tumour necrosis factor alpha) in THP-1 cells (human monocytic acute leukaemia cell line). TNF-α is a cytokine involved in inflammatory processes. In this test, TNF-α secretion is triggered by incubation with bacterial lipopolysaccharide (LPS).
THP-1 cells are kept in continuous suspension cell culture [RPMI 1460 medium with L-Glutamax (Gibco, Cat No. 61870-044) supplemented with foetal calf serum (FCS) 10% (Invitrogen, Cat No. 10082-147), 1% penicillin/streptomycin (Gibco BRL, Cat No. 15140-114)] and should not exceed a cell concentration of 1×10^6 cells/ml. The assay is carried out in cell culture medium (RPMI 1460 medium with L-Glutamax supplemented with FCS 10%).
In each case 2-2.5 μl of the cell suspension (corresponds to 4000 cells) per well were dispensed into a 384-well test plate (Greiner, Cat No. 784076), in each of which 40-50 nl substance had been dissolved in 100% DMSO. This was done using […] in the range from 20 μM to 0.073 nM for each substance. The cells were incubated at room temperature for 15 min. 2-2.5 μl of 0.1 μg/ml LPS (Sigma, Escherichia coli 055:B5, Cat. No. L5418) dissolved in cell culture medium (final concentration 0.05 μg/ml) were then dispensed into each well. As neutral control, cells were treated with 0.05 μg/ml LPS and 1% DMSO and, as inhibitor control, with 1% DMSO only.
The plates were centrifuged at 80 g for 30 s and incubated at 37° C., 5% CO2 and 95% atmospheric humidity for 17 h. The amount of TNF-α was determined using the TNF-alpha HTRF Detection Kit (Cisbio, Cat No. 62TNFPEB/C). To this end, 2 μl of the detection solution in each case, consisting of anti-TNF-α-XL665 conjugate and anti-TNF-α-cryptate conjugate dissolved in the reconstitution buffer in accordance with the manufacturer's instructions, were added for the HTRF (Homogeneous Time-Resolved Fluorescence) test. After the addition, the mixture was incubated either at room temperature for 3 h or at 4° C. overnight. The signals were then read at 620/665 nm using an HTRF-enabled measuring instrument such as the BMG PheraStar.
The activity of the substances is expressed as the ratio between neutral and inhibitor control in percent. The IC50 values were calculated using a 4-parameter fit.

Chain of human IRAK4 (Q9NWZ3 whole entry): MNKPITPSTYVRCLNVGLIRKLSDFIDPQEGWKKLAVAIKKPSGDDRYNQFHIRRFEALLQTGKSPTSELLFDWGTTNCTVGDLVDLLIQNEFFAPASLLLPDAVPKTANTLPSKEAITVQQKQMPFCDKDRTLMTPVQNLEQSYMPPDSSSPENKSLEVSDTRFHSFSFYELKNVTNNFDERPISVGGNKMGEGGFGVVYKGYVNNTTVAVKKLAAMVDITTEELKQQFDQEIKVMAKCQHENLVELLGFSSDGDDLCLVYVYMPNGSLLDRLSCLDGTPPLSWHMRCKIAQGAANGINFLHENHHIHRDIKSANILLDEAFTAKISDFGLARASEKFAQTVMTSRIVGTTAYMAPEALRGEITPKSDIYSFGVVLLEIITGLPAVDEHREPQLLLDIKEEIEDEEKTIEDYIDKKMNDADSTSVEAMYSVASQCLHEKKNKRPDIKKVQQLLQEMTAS

IC50 (human IRAK4) [µM] | IC50 [1] [µM] | Compound
0.022 | 0.09 | O=C(Nc1cc2cn(C3CCOCC3)nc2cc1Cl)c1cccc(C(F)F)n1 [Example 31, N-[6-Chloro-2-(tetrahydro-2H-pyran-4-yl)-2H-indazol-5-yl]-6-(difluoromethyl)pyridine-2-carboxamide]
0.065 | – | COc1cc2nn(C3CCOCC3)cc2cc1NC(=O)c1nc(C(F)(F)F)cs1 [Example 47, N-[6-Methoxy-2-(tetrahydro-2H-pyran-4-yl)-2H-indazol-5-yl]-4-(trifluoromethyl)-1,3-thiazole-2-carboxamide]
0.006 | – | COc1cc2nn(C3CCOCC3)cc2cc1NC(=O)c1ccn(C(F)F)n1 [Example 51, 1-(Difluoromethyl)-N-[6-methoxy-2-(tetrahydro-2H-pyran-4-yl)-2H-indazol-5-yl]-1H-pyrazole-3-carboxamide]
0.028 | 0.54 | CC(C)(O)c1cc2nn([C@H]3CCOC3)cc2cc1NC(=O)c1cccc(C(F)(F)F)n1 [Example 36, N-{6-(2-Hydroxypropan-2-yl)-2-[(3S)-tetrahydrofuran-3-yl]-2H-indazol-5-yl}-6-(trifluoromethyl)pyridine-2-carboxamide]
0.006 | 0.22 | COc1cc2nn(C3CCOCC3)cc2cc1NC(=O)c1cccc(N)n1 [Example 26, 6-Amino-N-[6-methoxy-2-(tetrahydro-2H-pyran-4-yl)-2H-indazol-5-yl]pyridine-2-carboxamide]
0.001 | – | NC(=O)c1cc2nn(C3CCNCC3)cc2cc1NC(=O)c1cccc(C(F)(F)F)n1 [Example 53, 2-(Piperidin-4-yl)-5-({[6-(trifluoromethyl)pyridin-2-yl]carbonyl}amino)-2H-indazole-6-carboxamide]
0.003 | – | COc1cc2nn(C3CCS(=O)(=O)CC3)cc2cc1NC(=O)c1cccc(C(F)(F)F)n1 [Example 11, N-[2-(1,1-Dioxidotetrahydro-2H-thiopyran-4-yl)-6-methoxy-2H-indazol-5-yl]-6-(trifluoromethyl)pyridine-2-carboxamide]
0.496 | – | O=C(Nc1cc2cn(C3CCOCC3)nc2cc1Cl)c1nc(C(F)(F)F)cs1 [Example 50, N-[6-Chloro-2-(tetrahydro-2H-pyran-4-yl)-2H-indazol-5-yl]-4-(trifluoromethyl)-1,3-thiazole-2-carboxamide]
0.004 | – | CC(C)(O)CCN1CCC(n2cc3cc(NC(=O)c4cccc(C(F)(F)F)n4)c(C(N)=O)cc3n2)CC1 [Example 56, 2-[1-(3-Hydroxy-3-methylbutyl)piperidin-4-yl]-5-({[6-(trifluoromethyl)pyridin-2-yl]carbonyl}amino)-2H-indazole-6-carboxamide]
0.047 | 0.28 | O=C(Nc1cc2cn(C3CCOCC3)nc2cc1Cl)c1cccc(C(F)(F)F)n1 [Example 30, N-[6-Chloro-2-(tetrahydro-2H-pyran-4-yl)-2H-indazol-5-yl]-6-(trifluoromethyl)pyridine-2-carboxamide]
0.002 | – | CN1CCC(n2cc3cc(NC(=O)c4cccc(C(F)(F)F)n4)c(C(N)=O)cc3n2)CC1 [Example 57, 2-(1-Methylpiperidin-4-yl)-5-({[6-(trifluoromethyl)pyridin-2-yl]carbonyl}amino)-2H-indazole-6-carboxamide]
3.78 | – | COc1cc2nn(C3CCOCC3)cc2cc1NC(=O)c1nc(C)no1 [Example 49, N-[6-Methoxy-2-(tetrahydro-2H-pyran-4-yl)-2H-indazol-5-yl]-3-methyl-1,2,4-oxadiazole-5-carboxamide]
0.001 | – | COC(=O)c1cc2nn(C3CCN(C)CC3)cc2cc1NC(=O)c1cccc(C(F)(F)F)n1 [Example 55, Methyl 2-(1-methylpiperidin-4-yl)-5-({[6-(trifluoromethyl)pyridin-2-yl]carbonyl}amino)-2H-indazole-6-carboxylate]
0.691 | – | COc1cc2nn(C3CCOCC3)cc2cc1NC(=O)c1nc(-c2ccncc2)no1 [Example 48, N-[6-Methoxy-2-(tetrahydro-2H-pyran-4-yl)-2H-indazol-5-yl]-3-(pyridin-4-yl)-1,2,4-oxadiazole-5-carboxamide]
0.075 | – | O=C(Nc1cc2cn(C3CCNCC3)nc2cc1C(=O)O)c1cccc(C(F)(F)F)n1 [Example 54, 2-(Piperidin-4-yl)-5-({[6-(trifluoromethyl)pyridin-2-yl]carbonyl}amino)-2H-indazole-6-carboxylic Acid]
0.002 | – | COCCN1CCC(n2cc3cc(NC(=O)c4cccc(C(F)(F)F)n4)c(OC)cc3n2)CC1 [Example 58, N-{6-Methoxy-2-[1-(2-methoxyethyl)piperidin-4-yl]-2H-indazol-5-yl}-6-(trifluoromethyl)pyridine-2-carboxamide]
0.002 | – | COc1cc2nn(C3CCN(C4CCN(C)CC4)CC3)cc2cc1NC(=O)c1cccc(C(F)(F)F)n1 [Example 6, N-[6-Methoxy-2-(1′-methyl-1,4′-bipiperidin-4-yl)-2H-indazol-5-yl]-6-(trifluoromethyl)pyridine-2-carboxamide]
0.016 | – | CC(C)(O)c1cc2nn([C@H]3CCS(=O)(=O)C3)cc2cc1NC(=O)c1cccc(C(F)(F)F)n1 [Example 41, N-{2-[(3S)-1,1-Dioxidotetrahydrothiophen-3-yl]-6-(2-hydroxypropan-2-yl)-2H-indazol-5-yl}-6-(trifluoromethyl)pyridine-2-carboxamide]
0.001 | – | COc1cc2nn(C3CCN(CCN(C)C)CC3)cc2cc1NC(=O)c1cccc(C(F)(F)F)n1 [Example 9, N-(2-{1-[2-(Dimethylamino)ethyl]piperidin-4-yl}-6-methoxy-2H-indazol-5-yl)-6-(trifluoromethyl)pyridine-2-carboxamide]
